This test addresses Muscarinic acetylcholine receptor M2 (Sus scrofa) (UniProt P06199). Description: Binding of [3H]N-methylscopolamine at porcine heart Muscarinic acetylcholine receptor M2 that inhibits the dissociation of [3H]NMS half maximally (pEC50diss) was reported.
Chain of Muscarinic acetylcholine receptor M2 (Sus scrofa) (P06199 whole entry, looked up): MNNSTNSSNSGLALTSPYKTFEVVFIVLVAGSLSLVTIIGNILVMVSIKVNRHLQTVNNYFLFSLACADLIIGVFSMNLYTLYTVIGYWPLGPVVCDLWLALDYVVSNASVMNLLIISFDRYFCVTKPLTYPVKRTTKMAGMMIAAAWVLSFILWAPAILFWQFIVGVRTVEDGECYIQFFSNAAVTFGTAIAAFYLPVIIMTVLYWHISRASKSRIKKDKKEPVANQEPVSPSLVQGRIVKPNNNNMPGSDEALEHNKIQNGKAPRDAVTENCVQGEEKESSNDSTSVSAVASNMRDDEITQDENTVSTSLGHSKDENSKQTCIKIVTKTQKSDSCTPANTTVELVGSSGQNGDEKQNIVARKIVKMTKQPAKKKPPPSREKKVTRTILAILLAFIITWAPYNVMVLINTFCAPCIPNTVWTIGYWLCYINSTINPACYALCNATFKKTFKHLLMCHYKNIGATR
A word on the EC50: it is the concentration at which the effect is half-maximal. A high value points to weaker potency. For the compound `Cc1ccc2c(c1)C(=O)N(CCC[N+](C)(C)CCCCCC[N+](C)(C)CCCN1C(=O)c3ccccc3C1=O)C2=O`, a half-maximal response (EC50) required 324 nM.

In the case of `Cc1ccc2c(c1)C(=O)N(CCC[N+](C)(C)CCCCCC[N+](C)(C)CCCN1C(=O)c3ccc(C)cc3C1=O)C2=O`, the half-maximal effective concentration (EC50) amounted to 170 nM.

Turning to `CC(C)(CN1C(=O)c2ccccc2C1=O)C[N+](C)(C)CCCCCC[N+](C)(C)CCCN1C(=O)c2ccccc2C1=O`, the EC50 came out at 135 nM.

`CC(C)(CN1C(=O)c2ccccc2C1=O)C[N+](C)(C)CCCCCC[N+](C)(C)CC(C)(C)CN1C(=O)c2ccccc2C1=O` gave an EC50 of 178 nM.

`Cc1ccc2c(c1)C(=O)N(CC(C)(C)C[N+](C)(C)CCCCCC[N+](C)(C)CC(C)(C)CN1C(=O)c3ccc(C)cc3C1=O)C2=O` had a concentration giving a half-maximal response (EC50) of 47 nM.

Consider `Cc1ccc2c(c1)C(=O)N(CCC[N+](C)(C)CCCCCC[N+](C)(C)CC(C)(C)CN1C(=O)c3ccc(C)cc3C1=O)C2=O`, for which the 50% effective concentration (EC50) was 36 nM.

`Cc1ccc2c(c1)C(=O)N(CC(C)(C)C[N+](C)(C)CCCCCC[N+](C)(C)CCCN1C(=O)c3ccccc3C1=O)C2=O` yielded an EC50 of 55 nM.

For the compound `Cc1ccc2c(c1)C(=O)N(CCC[N+](C)(C)CCCCCC[N+](C)(C)CC(C)(C)CN1C(=O)c3ccccc3C1=O)C2=O`, a half-maximal response (EC50) required 71 nM.

Source of the values: BindingDB's records for doi:10.1021/jm020871e (University of Bonn, 2002).
